Assay results: ChEMBL document CHEMBL4732022, “Generation of reactive oxygen species is the primary mode of action and cause of survivin suppression by sepantronium bromide (YM155)” (RSC Med Chem, 2021)
Active and inactive are the calls of the source. The rule behind the calls is not given here.

Assays:
[1] = molecular target: Baculoviral IAP repeat-containing protein 5 (Homo sapiens) (UniProt O15392); assay: Inhibition of survivin in human MDA-MB-231 cells assessed as reduction in survivin mRNA expression measured after 72 hrs by qPCR analysis; type: cell-based
Baculoviral IAP repeat-containing protein 5 (Homo sapiens), sequence (O15392 whole entry): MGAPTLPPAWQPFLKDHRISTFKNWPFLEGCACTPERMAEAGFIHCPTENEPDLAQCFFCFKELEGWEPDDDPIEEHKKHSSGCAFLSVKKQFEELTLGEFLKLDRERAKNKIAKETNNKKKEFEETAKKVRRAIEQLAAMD

[2] = molecular target: Baculoviral IAP repeat-containing protein 5 (Homo sapiens) (UniProt O15392); assay: Inhibition of survivin in human BT-20 cells assessed as reduction in survivin mRNA expression measured after 72 hrs by qPCR analysis; type: cell-based
[3] = molecular target: Baculoviral IAP repeat-containing protein 5 (Homo sapiens) (UniProt O15392); assay: Inhibition of survivin in human MDA-MB-453 cells assessed as reduction in survivin mRNA expression measured after 72 hrs by qPCR analysis; type: cell-based
[4] = tested on: MDA-MB-231; assay: Induction of ROS generation in human MDA-MB-231 cells assessed as increase in ROS level at 20 uM incubated for 12 hrs by […] based assay; type: functional, cell-based
[5] = tested on: MDA-MB-231; assay: Downregulation of survivin protein expression in human MDA-MB-231 cells at 20 uM incubated for 72 hrs by Western blot analysis; type: functional, cell-based
[6] = tested on: MDA-MB-231; assay: Downregulation of survivin protein expression in human MDA-MB-231 cells at 1 mM incubated for 72 hrs by Western blot analysis; type: functional, cell-based
[7] = tested on: MDA-MB-231; assay: Induction of ROS generation in human MDA-MB-231 cells assessed as increase in ROS level at 1 mM incubated for 12 hrs by […] based assay; type: functional, cell-based
[8] = tested on: MCF-10A; assay: Cytotoxicity against human MCF-10A cells at 200 uM; type: cell-based

| SMILES | inhibition [1] | inhibition [2] | inhibition [3] | Activity [4] | Activity [5] | Activity [6] | Activity [7] | Activity [8] |
| --- | --- | --- | --- | --- | --- | --- | --- | --- |
| CC1=CC(=O)c2ccccc2C1=O | Active | Active | Active | Active | Active |  |  |  |
| CCCCS(=N)(=O)CCC(N)C(=O)O (stereo unspecified) [BUTHIONINE SULFOXIMINE] | Active | Active | Active |  |  | Active | Active | Non-Toxic |
